The text below walks through data of patent publication US20120238767A1, “ANTIOXIDANT INFLAMMATION MODULATORS: NOVEL DERIVATIVES OF OLEANOLIC ACID” (priority 2008, published 2012).

Assay [1] deals with IFNγ-induced NO production in RAW264.7 macrophages. The assay is described as follows: Suppression of IFNγ-induced NO production (Griess reagent). It counts as cell-based, mouse. The note with it: RAW264.7, 20 ng/ml IFNγ for 24 hours, 2 hours pre-treatment. How it is done:
(§1) FIGS. 1-11 and 22. Inhibition of NO Production. RAW264.7 macrophages were pre-treated with DMSO or drugs at various concentrations (nM) for 2 hours, then treated with 20 ng/ml IFNγ for 24 hours. NO concentration in media was determined using a Griess reagent system; cell viability was determined using WST-1 reagent. Nitric Oxide production and cell viability. RAW264.7 macrophages were pre-treated with DMSO or drugs for 2 hours, then treated with recombinant mouse IFNγ (Sigma) for 24 hours. NO concentration in media was determined using the Griess reagent system (Promega). Cell viability was determined using WST-1 reagent (Roche).
(Nitrite, measured by Griess reagent, commonly stands in for NO production.)

The subject of the next assay is RAW264.7 macrophages. The assay is described as follows: Cell viability (WST-1 reagent). It counts as cell-based, mouse. The note with it: RAW264.7, 20 ng/ml IFNγ. How it is done:
as §1
In general terms: Formazan colour is commonly taken as a measure of viable cells.

Usually IC50 stands for the concentration at which inhibition is half-maximal.

Each structure is given as a SMILES string. A value given as a limit tells only on which side of the number the result lay.

Regarding `COC(=O)[C@]12CCC(C)(C)C[C@H]1[C@H]1C(=O)C=C3[C@@]4(C)C=C(F)C(=O)C(C)(C)[C@@H]4CC[C@@]3(C)[C@]1(C)CC2` [Compound 402-05, (4aS,6aR,6bS,8aR,12aR,14aR,14b5)-methyl-11-fluoro-2,2,6a,6b,9,9,12a-heptamethyl-10,14-dioxo-1,2,3,4,4a,5,6,6a,6b,7,8,8a,9,10,12a,14,14a,14b-octadecahydropicene-4a-carboxylate], the IC50 (in assay [1]; in the assay on RAW264.7 macrophages) was greater than 200 nM in each case. As to `COC(=O)[C@]12CCC(C)(C)C[C@H]1[C@H]1C(=O)C=C3[C@@]4(C)C=C(c5nnn[nH]5)C(=O)C(C)(C)[C@@H]4CC[C@@]3(C)[C@]1(C)CC2` [Compound 402-06, (4aS,6aR,6bS,8aR,12aS,14aR,14bS)-methyl-2,2,6a,6b,9,9,12a-heptamethyl-10,14-dioxo-11-(1H-tetrazol-5-yl)-1,2,3,4,4a,5,6,6a,6b,7,8,8a,9,10,12a,14,14a,14b-octadecahydropicene-4a-carboxylate], the IC50 (in assay [1] (Mus musculus); in the assay on RAW264.7 macrophages (Mus musculus)) was greater than 200 nM throughout.

Regarding `COC(=O)[C@]12CCC(C)(C)C[C@H]1[C@H]1C(=O)C=C3[C@@]4(C)C=C(C(=O)NO)C(=O)C(C)(C)[C@@H]4CC[C@@]3(C)[C@]1(C)CC2` [Compound 402-07, (4aS,6aR,6bS,8aR,12aS,14aR,14b5)-methyl-11-(hydroxycarbamoyl)-2,2,6a,6b,9,9,12a-heptamethyl-10,14-dioxo-1,2,3,4,4a,5,6,6a,6b,7,8,8a,9,10,12a,14,14a,14b-octadecahydropicene-4a-carboxylate], the IC50 (in assay [1] (Mus musculus); in the assay on RAW264.7 macrophages (Mus musculus)) was greater than 200 nM throughout.

Take `COC(=O)[C@]12CCC(C)(C)C[C@H]1[C@H]1C(=O)C=C3[C@@]4(C)C=C(C(=O)NS(C)(=O)=O)C(=O)C(C)(C)[C@@H]4CC[C@@]3(C)[C@]1(C)CC2` [Compound 402-08, (4aS,6aR,6bS,8aR,12aS,14aR,14bS)-methyl-2,2,6a,6b,9,9,12a-heptamethyl-11-(methylsulfonylcarbamoyl)-10,14-dioxo-1,2,3,4,4a,5,6,6a,6b,7,8,8a,9,10,12a,14,14a,14b-octadecahydropicene-4a-carboxylate]: the IC50 in assay [1] (Mus musculus) is 62 nM; in the assay on RAW264.7 macrophages (Mus musculus), greater than 200 nM. As to `CC1(C)CC[C@]2(C(=O)NO)CC[C@]3(C)[C@H](C(=O)C=C4[C@@]5(C)C=C(C#N)C(=O)C(C)(C)[C@@H]5CC[C@]43C)[C@@H]2C1` [Compound 402-09, (4aS,6aR,6bS,8aR,12aS,14aR,14bS)-11-cyano-N-hydroxy-2,2,6a,6b,9,9,12a-heptamethyl-10,14-dioxo-1,2,3,4,4a,5,6,6a,6b,7,8,8a,9,10,12a,14,14a,14b-octadecahydropicene-4a-carboxamide], the IC50 is 4.2 nM in assay [1] (Mus musculus) and greater than 200 nM in the assay with RAW264.7 macrophages (Mus musculus). For `CONC(=O)[C@]12CCC(C)(C)C[C@H]1[C@H]1C(=O)C=C3[C@@]4(C)C=C(C#N)C(=O)C(C)(C)[C@@H]4CC[C@@]3(C)[C@]1(C)CC2` [Compound 402-10, (4aS,6aR,6bS,8aR,12aS,14aR,14bS)-11-cyano-N-methoxy-2,2,6a,6b,9,9,12a-heptamethyl-10,14-dioxo-1,2,3,4,4a,5,6,6a,6b,7,8,8a,9,10,12a,14,14a,14b-octadecahydropicene-4a-carboxamide], the concentration for half-maximal inhibition (IC50) in assay [1] (Mus musculus) was 2.3 nM; with RAW264.7 macrophages (Mus musculus), greater than 200 nM. As to `CC1(C)CC[C@]2(C(=O)N=[N+]=[N-])CC[C@]3(C)[C@H](C(=O)C=C4[C@@]5(C)C=C(C#N)C(=O)C(C)(C)[C@@H]5CC[C@]43C)[C@@H]2C1` [Compound 402-11, (4aS,6aR,6bS,8aR,12aS,14aR,14bS)-11-cyano-2,2,6a,6b,9,9,12a-heptamethyl-10,14-dioxo-1,2,3,4,4a,5,6,6a,6b,7,8,8a,9,10,12a,14,14a,14b-octadecahydropicene-4a-carbonyl azide], the concentration for half-maximal inhibition (IC50) amounted to 2.5 nM in assay [1] (Mus musculus) and 150 nM with RAW264.7 macrophages (Mus musculus). `COC(=O)[C@]12CCC(C)(C)C[C@H]1[C@H]1C(=O)C=C3[C@@]4(C)C(C)=C(C#N)C(=O)C(C)(C)[C@@H]4CC[C@@]3(C)[C@]1(C)CC2` [Compound 402-22, (4 aS,6aR,6bS,8aR,12 aR,14 aR,14bS)-methyl-11-cyano-2,2,6a,6b,9,9,12,12a-octamethyl-10,14-dioxo-1,2,3,4,4a,5,6,6a,6b,7,8,8a,9,10,12a,14,14a,14b-octadecahydropicene-4a-carboxylate]: the IC50 (in assay [1] (Mus musculus); in the assay with RAW264.7 macrophages (Mus musculus)) was greater than 200 nM each time. As to `CC1(C)CC[C@]2(C(=O)NCCO)CC[C@]3(C)[C@H](C(=O)C=C4[C@@]5(C)C=C(C#N)C(=O)C(C)(C)[C@@H]5CC[C@]43C)[C@@H]2C1` [Compound 402-40, (4aS,6aR,6bS,8aR,12aS,14aR,14bS)-11-cyano-N-(2-hydroxyethyl)-2,2,6a,6b,9,9,12a-heptamethyl-10,14-dioxo-1,2,3,4,4a,5,6,6a,6b,7,8,8a,9,10,12a,14,14a,14b-octadecahydropicene-4a-carboxamide], the IC50 in assay [1] (Mus musculus) came to 17 nM; in the assay with RAW264.7 macrophages (Mus musculus), 75 nM. On to `COC(=O)[C@]12CCC(C)(C)C[C@H]1[C@H]1C(=O)C=C3[C@@]4(C)CC(C#N)=C(OC(C)=O)C(C)(C)[C@@H]4CC[C@@]3(C)[C@]1(C)CC2` [Compound 402-47, (4aS,6aR,6bS,8aR,12aS,14aR,14bS)-methyl-10-acetoxy-11-cyano-2,2,6a,6b,9,9,12a-heptamethyl-14-oxo-1,2,3,4,4a,5,6,6a,6b,7,8,8a,9,12,12a,14,14a,14b-octadecahydropicene-4a-carboxylate], for which the IC50 (in assay [1] (Mus musculus); with RAW264.7 macrophages (Mus musculus)) was greater than 200 nM each time. For the molecule `CC1(C)CC[C@]2(C(=O)F)CC[C@]3(C)[C@H](C(=O)C=C4[C@@]5(C)C=C(C#N)C(=O)C(C)(C)[C@@H]5CC[C@]43C)[C@@H]2C1` [Compound 402-55, (4aS,6aR,6bS,8aR,12aS,14aR,14bS)-11-cyano-2,2,6a,6b,9,9,12a-heptamethyl-10,14-dioxo-1,2,3,4,4a,5,6,6a,6b,7,8,8a,9,10,12a,14,14a,14b-octadecahydropicene-4a-carbonyl fluoride], the IC50 in assay [1] (Mus musculus) was roughly 3 nM; in the assay with RAW264.7 macrophages (Mus musculus) it was 100 nM. In the case of `COC(=O)[C@]12CCC(C)(C)C[C@H]1[C@H]1C(=O)C=C3[C@@]4(C)C=C(C#N)C(=O)[C@](C)(CO)[C@@H]4CC[C@@]3(C)[C@]1(C)CC2` [Compound 63301, (4aS,6aR,6bS,8aR,9S,12aS,14aR,14b5)-methyl 11-cyano-9-(hydroxymethyl)-2,2,6a,6b,9,12a-hexamethyl-10,14-dioxo-1,2,3,4,4a,5,6,6a,6b,7,8,8a,9,10,12a,14,14a,14b-octadecahydropicene-4a-carboxylate], the IC50 was roughly 3.2 nM in assay [1] (Mus musculus) and roughly 120 nM in the assay on RAW264.7 macrophages (Mus musculus). Consider `COCOC[C@@]1(C)C(=O)C(C#N)=C[C@]2(C)C3=CC(=O)[C@@H]4[C@@H]5CC(C)(C)CC[C@]5(C(=O)OC)CC[C@@]4(C)[C@]3(C)CC[C@@H]12` [Compound 63302, (4aS,6aR,6bS,8aR,9S,12aS,14aR,14bS)-methyl 11-cyano-9-((methoxymethoxy)methyl)-2,2,6a,6b,9,12a-hexamethyl-10,14-dioxo-1,2,3,4,4a,5,6,6a,6b,7,8,8a,9,10,12a,14,14a,14b-octadecahydropicene-4a-carboxylate], for which the IC50 is roughly 18 nM in assay [1] (Mus musculus) and roughly 100 nM in the assay with RAW264.7 macrophages (Mus musculus). On to `COC(=O)[C@]12CCC(C)(C)C[C@H]1[C@H]1C(=O)C=C3[C@@]4(C)C=C(C#N)C(=O)C(C)(C)[C@@H]4[C@H](O)C[C@@]3(C)[C@]1(C)CC2` [Compound 63307, (4aS,6aR,6bS,8R,8aR,12aS,14aR,14bS)-methyl 11-cyano-8-hydroxy-2,2,6a,6b,9,9,12a-heptamethyl-10,14-dioxo-1,2,3,4,4a,5,6,6a,6b,7,8,8a,9,10,12a,14,14a,14b-octadecahydropicene-4a-carboxylate], for which the values for the IC50 (in assay [1] (Mus musculus); in the assay with RAW264.7 macrophages (Mus musculus)) were roughly 60 nM and greater than 200 nM, respectively. For `COC(=O)[C@]12CCC(C)(C)C[C@H]1[C@H]1C(=O)C=C3[C@@]4(C)C=C(C#N)C(=O)C(C)(C)[C@@H]4C(=O)C[C@@]3(C)[C@]1(C)CC2` [Compound 63309, (4aS,6aR,6bS,8aR,12aS,14aR,14bS)-methyl 11-cyano-2,2,6a,6b,9,9,12a-heptamethyl-8,10,14-trioxo-1,2,3,4,4a,5,6,6a,6b,7,8,8a,9,10,12a,14,14a,14b-octadecahydropicene-4a-carboxylate], the IC50 is roughly 12 nM in assay [1] (Mus musculus) and greater than 200 nM in the assay with RAW264.7 macrophages (Mus musculus). Consider `COC(=O)[C@]12CCC(C)(C)C[C@H]1[C@H]1C(=O)C=C3[C@@]4(C)[C@@H](O)[C@](O)(C#N)C(=O)C(C)(C)[C@@H]4CC[C@@]3(C)[C@]1(C)CC2` [Compound 63316, (4aS,6aR,6bS,8aR,11R,12R,12aS,14aR,14bS)-methyl 11-cyano-11,12-dihydroxy-2,2,6a,6b,9,9,12a-heptamethyl-10,14-dioxo-1,2,3,4,4a,5,6,6a,6b,7,8,8a,9,10,11,12,12a,14,14a,14b-icosahydropicene-4a-carboxylate], for which the results for the IC50 (in assay [1] (Mus musculus); in the assay on RAW264.7 macrophages (Mus musculus)) were roughly 80 nM and greater than 200 nM, respectively. For the molecule `COC(=O)[C@]12CCC(C)(C)C[C@H]1[C@H]1C(=O)C=C3[C@@]4(C)C=C(C(F)(F)F)C(=O)C(C)(C)[C@@H]4CC[C@@]3(C)[C@]1(C)CC2` [Compound 63320, (4aS,6aR,6bS,8aR,12aS,14aR,14bS)-methyl 2,2,6a,6b,9,9,12a-heptamethyl-10,14-dioxo-11-(trifluoromethyl)-1,2,3,4,4a,5,6,6a,6b,7,8,8a,9,10,12a,14,14a,14b-octadecahydropicene-4a-carboxylate], the IC50 in assay [1] (Mus musculus) was roughly 12 nM.
